Results as given in US12685728B2, “Anti-vertigo compound and pharmaceutical compositions thereof” (Amneal Pharmaceuticals LLC, priority 2020, dated 2026).

Key:
[1] = doses up to 450-fold higher than the therapeutic doses; cited from earlier work
[2] = test system: patients with Peripheral vertigo; test: Same clinical trial: tolerability; assay type: in vivo, human; details: 20 mg orally three times a day for 28 days
Excerpt: (§1) The current study was designed as an open label, two-treatment arm, active comparator controlled, Clinical trial in patients with Peripheral vertigo. This study involved a screening phase, randomization and treatment phase as mentioned below: • Screening phase (Visit 1): −14 to −1 day • Baseline visit and day of randomization (Visit 2): Day 0/1 • Treatment phase: Day 1 to Day 28 • End of treatment (Visit 4): Day 29±2 days
(§2) Patients with Peripheral vertigo, meeting the mentioned eligibility criteria were identified and shortlisted patients underwent screening within 14 days prior to randomization. A total of 16 patients were randomized in the ratio of 3:1 to receive the test and active comparator products (12 patients received test product and 4 patients received active comparator product). Test product was consumed as 20 mg Levocloperastine orally three times a day for 28 days. Active comparator (standard of care) was consumed by the patients as per the investigator's sole discretion and medical judgement. The standard of care treatment included Betahistine 16 mg tablets three times daily OR Betahistine 16 mg tablets three times daily plus Acetazolamide 125 mg tablets two time daily OR Cinnarizine 25 mg tablets three times daily which was given to patient.

[3] = test system: patients with Peripheral vertigo; test: Open label, active comparator controlled clinical trial: MVS score (severity of vertigo symptoms); assay type: in vivo, human
Excerpt: The MVS score, a 12-item composite score to measure the severity of vertigo symptoms, is defined as the mean intensity of 6 (unprovoked) vertigo symptoms (dysstasia and walking unsteadiness, staggering, rotary sensation, tendency to fall, lift sensation, blackout) and vertigo in consequence of 6 triggering factors [change of position (lying), bowing, getting up, driving by car/train, head movements (inclination, twist), eye movement]. The intensity of each of the 12 single symptoms is rated by the patients by means of a 5-point VAS (0=not present, 1=moderate, 2=medium, 3=strong, 4=very strong). A mean MVS serving as a measure of vertigo intensity, will be calculated by adding the scores on all 12 vertigo symptoms and dividing by 12. The scale is rated by patients directly.
as §1, §2
MVS Score: Mean change in MVS score from baseline score was compared between two treatment arms.

[4] = test system: patients with Peripheral vertigo; test: Same clinical trial: composite score of vegetative concomitant symptoms (nausea, vomiting, sweating, tachycardia), 5-point VAS; assay type: in vivo, human
Excerpt: as §1, §2
Additionally, mean change in composite score of vegetative concomitant symptoms from baseline score was compared between two treatment arms. The absolute data and mean changes from baseline data are presented below in Table 2.

[5] = 20 mg orally three times a day for 28 days
[6] = 7 days after treatment onset [Interim visit: Day 7 + 3]
[7] = 28 days after treatment onset [end of treatment: Day 29 ± 2]

Clc1ccc([C@@H](OCCN2CCCCC2)c2ccccc2)cc1 (racemic) [Levocloperastine]
Sedation [1]: did not induce any clinically relevant sedation
Tolerability [2]: well tolerability in all patients
Efficacy on primary efficacy endpoint MVS score versus standard of care [3, 5]: equally efficacious in comparison to standard of care treatment
MVS Score, Change from baseline, Mean ± SD ([3]; A/28 Days [Day 29 ± 2]): −1.1 ± 0.45
MVS Score, Mean ± SD ([3]; A/28 Days [Day 29 ± 2]): 1.1 ± 0.58
MVS Score, Change as % ([3]; A/28 Days [Day 29 ± 2] vs baseline): −50.00%
MVS Score, Mean ± SD ([3]; Baseline (Day 0/1)): 2.2 ± 0.29
MVS Score, Change from baseline, Mean ± SD ([3]; Interim visit [Day 7 + 3]): −0.7 ± 0.33
MVS Score, Mean ± SD ([3]; Interim visit [Day 7 + 3]): 1.5 ± 0.49
MVS Score, Change as % ([3]; Interim visit [Day 7 + 3] vs baseline): -31.8%
Alleviation of vegetative concomitant symptoms versus standard of care [4, 5]: statistically better in alleviating the vegetative concomitant symptoms than the standard of care treatment
Score of vegetative concomitant symptoms, Absolute data, Mean ± SD [4, 6]: 0.6 ± 0.73
Score of vegetative concomitant symptoms, Change as % [4, 6]: −46.15%
Score of vegetative concomitant symptoms, Change from baseline, Mean ± SD [4, 6]: −0.6 ± 0.81
Score of vegetative concomitant symptoms, Absolute data, Mean ± SD [4, 7]: 0.2 ± 0.47
Score of vegetative concomitant symptoms, Change as % [4, 7]: −84.62%
Score of vegetative concomitant symptoms, Change from baseline, Mean ± SD [4, 7]: −1.1 ± 0.98
Score of vegetative concomitant symptoms, Absolute data, Mean ± SD ([4]; Baseline): 1.3 ± 1.05
Duration of treatment for comparable improvement in vegetative concomitant symptoms severity ([4]; human, in vivo): about 7 days
